{"source": "PubChem BioAssay AID1963985", "about": "(Molecular Pharmacology Branch, DTP, NCI, 2024);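 note: spheroids exposed to agents for seven days before readout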;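 for viability, T/C: percent of vehicle DMSO control viability so 100% = untreated growth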", "system": "252836-082-R-J2-PDC tumor spheroids, viability", "assay": "Anticancer human tumor 252836-082-R-J2-PDC patient-derived head and neck squamous cell carcinoma cell line growth inhibition [PI3K]", "conditions": "spheroids with HUVEC and MSC; for viability, T/C: stronger effect = lower value", "how_it_was_run": "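Tumor cells grown as multi-cell spheroids with HUVEC endothelial cells and MSC fibroblast-like stroma were treated with targeted agents combined with inavolisib, alpelisib, duvelisib or copanlisib. Doses fell in half-log steps from near clinical Cmax, else from 10 microM. Viability was measured.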"}
{"smiles": "Cn1cnc2c(F)c(Nc3ccc(Br)cc3Cl)c(C(=O)NOCCO)cc21", "note": "+ CC(Nc1ncnc2nc[nH]c12)c1cc2cccc(Cl)c2c(=O)n1-c1ccccc1", "values": [{"measurement": "IC50", "setting": "curve of first compound, second compound 0.0316 µM", "result": 2200, "unit": "nM"}, {"measurement": "IC50", "setting": "curve of first compound, second compound 0.1 µM", "result": 2800, "unit": "nM"}, {"measurement": "IC50", "setting": "curve of first compound, second compound 0.316 µM", "result": 2610, "unit": "nM"}, {"measurement": "IC50", "setting": "curve of first compound, second compound 1 µM", "result": 2100, "unit": "nM"}, {"measurement": "IC50", "setting": "curve of first compound, second compound 3.16 µM", "result": 1480, "unit": "nM"}, {"measurement": "IC50", "setting": "curve of first compound, second compound 10 µM", "result": 923, "unit": "nM"}, {"measurement": "viability, T/C", "setting": "second compound 0.0316 µM, first compound 0.00949 µM", "result": 102, "unit": "%"}, {"measurement": "viability, T/C", "setting": "second compound 0.0316 µM, first compound 0.03 µM", "result": 76.5, "unit": "%"}, {"measurement": "viability, T/C", "setting": "second compound 0.0316 µM, first compound 0.0949 µM", "result": 81.5, "unit": "%"}, {"measurement": "viability, T/C", "setting": "second compound 0.0316 µM, first compound 0.3 µM", "result": 92.7, "unit": "%"}, {"measurement": "viability, T/C", "setting": "second compound 0.0316 µM, first compound 0.949 µM", "result": 65.5, "unit": "%"}, {"measurement": "viability, T/C", "setting": "second compound 0.0316 µM, first compound 3 µM", "result": 44.2, "unit": "%"}, {"measurement": "viability, T/C", "setting": "second compound 0.1 µM, first compound 0.00949 µM", "result": 89.9, "unit": "%"}, {"measurement": "viability, T/C", "setting": "second compound 0.1 µM, first compound 0.03 µM", "result": 77.2, "unit": "%"}, {"measurement": "viability, T/C", "setting": "second compound 0.1 µM, first compound 0.0949 µM", "result": 88.8, "unit": "%"}, {"measurement": "viability, T/C", "setting": "second compound 0.1 µM, first compound 0.3 µM", "result": 95.3, "unit": "%"}, {"measurement": "viability, T/C", "setting": "second compound 0.1 µM, first compound 0.949 µM", "result": 74.5, "unit": "%"}, {"measurement": "viability, T/C", "setting": "second compound 0.1 µM, first compound 3 µM", "result": 48.4, "unit": "%"}, {"measurement": "viability, T/C", "setting": "second compound 0.316 µM, first compound 0.00949 µM", "result": 88, "unit": "%"}, {"measurement": "viability, T/C", "setting": "second compound 0.316 µM, first compound 0.03 µM", "result": 87.2, "unit": "%"}, {"measurement": "viability, T/C", "setting": "second compound 0.316 µM, first compound 0.0949 µM", "result": 88.6, "unit": "%"}, {"measurement": "viability, T/C", "setting": "second compound 0.316 µM, first compound 0.3 µM", "result": 79.3, "unit": "%"}, {"measurement": "viability, T/C", "setting": "second compound 0.316 µM, first compound 0.949 µM", "result": 77.1, "unit": "%"}, {"measurement": "viability, T/C", "setting": "second compound 0.316 µM, first compound 3 µM", "result": 46, "unit": "%"}, {"measurement": "viability, T/C", "setting": "second compound 1 µM, first compound 0.00949 µM", "result": 89.8, "unit": "%"}, {"measurement": "viability, T/C", "setting": "second compound 1 µM, first compound 0.03 µM", "result": 77.3, "unit": "%"}, {"measurement": "viability, T/C", "setting": "second compound 1 µM, first compound 0.0949 µM", "result": 85.3, "unit": "%"}, {"measurement": "viability, T/C", "setting": "second compound 1 µM, first compound 0.3 µM", "result": 75.6, "unit": "%"}, {"measurement": "viability, T/C", "setting": "second compound 1 µM, first compound 0.949 µM", "result": 72, "unit": "%"}, {"measurement": "viability, T/C", "setting": "second compound 1 µM, first compound 3 µM", "result": 40.4, "unit": "%"}, {"measurement": "viability, T/C", "setting": "second compound 3.16 µM, first compound 0.00949 µM", "result": 82.1, "unit": "%"}, {"measurement": "viability, T/C", "setting": "second compound 3.16 µM, first compound 0.03 µM", "result": 78.5, "unit": "%"}, {"measurement": "viability, T/C", "setting": "second compound 3.16 µM, first compound 0.0949 µM", "result": 64.6, "unit": "%"}, {"measurement": "viability, T/C", "setting": "second compound 3.16 µM, first compound 0.3 µM", "result": 66, "unit": "%"}, {"measurement": "viability, T/C", "setting": "second compound 3.16 µM, first compound 0.949 µM", "result": 61.3, "unit": "%"}, {"measurement": "viability, T/C", "setting": "second compound 3.16 µM, first compound 3 µM", "result": 38.6, "unit": "%"}, {"measurement": "viability, T/C", "setting": "second compound 10 µM, first compound 0.00949 µM", "result": 67.3, "unit": "%"}, {"measurement": "viability, T/C", "setting": "second compound 10 µM, first compound 0.03 µM", "result": 67.1, "unit": "%"}, {"measurement": "viability, T/C", "setting": "second compound 10 µM, first compound 0.0949 µM", "result": 64.2, "unit": "%"}, {"measurement": "viability, T/C", "setting": "second compound 10 µM, first compound 0.3 µM", "result": 54.4, "unit": "%"}, {"measurement": "viability, T/C", "setting": "second compound 10 µM, first compound 0.949 µM", "result": 53.6, "unit": "%"}, {"measurement": "viability, T/C", "setting": "second compound 10 µM, first compound 3 µM", "result": 31.4, "unit": "%"}]}
{"smiles": "CCCS(=O)(=O)Nc1ccc(F)c(C(=O)c2c[nH]c3ncc(-c4ccc(Cl)cc4)cc23)c1F", "values": [{"measurement": "viability, T/C", "setting": "compound 0.0316 µM", "result": "99% [middle of 4 runs]"}, {"measurement": "viability, T/C", "setting": "compound 1 µM", "result": "96.2% [middle of 4 runs]"}, {"measurement": "viability, T/C", "setting": "compound 3.16 µM", "result": "90% [middle of 4 runs]"}, {"measurement": "viability, T/C", "setting": "compound 10 µM", "result": "8.42% [middle of 4 runs]"}, {"measurement": "IC50", "setting": "curve of compound", "result": "5.49 µM [middle of 4 runs]"}]}
{"smiles": "CCN1CCN(Cc2ccc(Nc3ncc(F)c(-c4cc(F)c5nc(C)n(C(C)C)c5c4)n3)nc2)CC1", "values": [{"measurement": "viability, T/C", "setting": "compound 0.00316 µM", "result": "99.2% [middle of 4 runs]"}, {"measurement": "viability, T/C", "setting": "compound 0.01 µM", "result": "91.3% [middle of 4 runs]"}, {"measurement": "viability, T/C", "setting": "compound 0.0316 µM", "result": "94.5% [middle of 4 runs]"}, {"measurement": "viability, T/C", "setting": "compound 0.1 µM", "result": "95.2% [middle of 4 runs]"}, {"measurement": "viability, T/C", "setting": "compound 0.316 µM", "result": "91.5% [middle of 4 runs]"}, {"measurement": "IC50", "setting": "curve of compound", "result": "> 1000", "unit": "nM"}]}
